Patent publication US20020028248A1, “RAPID-RELEASE MICRODISPERSIBLE ECADOTRIL PREPARATION” (priority 1996, published 2002)
Read-outs that look alike come from different tables or passages of the source.

Legend:
[1] = Solubility of Ecadotril in water; assay type: physicochemical; details: 37 °C
Excerpt: Ecadotril (N-[(S)-α-(mercaptomethyl)hydrocinnamoyl]glycine, benzyl ester, acetate(ester); N-[(S)-α-(acetylthiomethyl)hydrocinnamoyl]glycine, benzyl ester) is an enkephalinase inhibitor used as a hypotensive drug, a cardiac insufficiency therapeutic drug, or the like. […] Therefore, when formulated into tablets, capsules, or the like by conventional methods, sufficient absorbability of Ecadotril in the digestive tract cannot be obtained because of low dispersibility of drug particles. Thus, a preparation of Ecadotril with improved bioavailability, in particular a tablet with high content, has been demanded. Generally, it is known that in order to obtain sufficient absorbability of such water-insoluble drugs, the solubility (dissolving rate) of the drugs is enhanced. For example, Japanese Laid-Open Patent Publication No. 7-76516 discloses a method for spray drying dispersions in which finely ground drug particles and a hydrophilic excipient are dispersed in water. However, according to this method, when powder to be obtained is formulated into tablets, there is a possibility that drug particles come into close contact with each other thereby decreasing the disintegration property and absorbability of the preparation. Furthermore, in the case where water-insoluble drugs such as Ecadotril with a low melting point and high plasticity are used, particles are likely to aggregate. […]

[2] = Dissolution test (in vitro test), paddle method; assay type: physicochemical; details: 100 mg of the preparation, distilled water 900 ml, 37° C.
Procedure: (2) Dissolution test (in vitro test) Apparatus: Dissolution test machine in accordance with The 12th revised Japanese Pharmacopoeia using the paddle method a stirring speed 100 rpm. Test solution: Distilled water 900 ml, 37° C. Collection of solution: Eluates are collected 5, 10, 15, 30, 45, and 60 minutes after the commencement of dissolution, and the respective eluates are filtrated through […] 13; Kento Chemical Co., Ltd.) aqueous filter (0.22 μm). Then, about 1.5 ml each of the filtrates is collected. One milliliter of this filtrate or standard solution is mixed with 1 ml of internal standard, and 25 μl of the mixed solution is injected to HPLC.

solubility ([1]; read-out: solubility in water): ~33 µg/mL
solubility ([1]; read-out: solubility of Ecadotril in water): 33 µg/mL
maximum dissolution amount in the present test [2]: about 30%
SMILES: CC(=O)SC[C@@H](Cc1ccccc1)C(=O)NCC(=O)OCc1ccccc1 [Ecadotril, N-[(S)-α-(mercaptomethyl)hydrocinnamoyl]glycine, benzyl ester, acetate(ester)]
